Drawing on patent US20080234262A1 (Wyeth, priority 2007, published 2008), this text covers IC50 for 23 molecules.

Broadly, the IC50 is the concentration needed to halve the response being measured.

Experiment [1] concerns the target PI3K (Homo sapiens, UniProt P42336). As to the kind of experiment: Fluorescence polarization assay for PI3K.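 Also: PI3K kinase reaction on PIP2 with ATP, 30-60 min, product sensed by GST-GRP with red probe in fluorescence polarization (mP), controls without enzyme and at zero time.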 The note with it: PI3Kα; read-out: PI3Kα IC50. It counts as biochemical.
The test system of experiment [2] is prostate line LNCap. As to the kind of experiment: In vitro cell culture growth assay (MTS), LNCap. As to conditions: LNCap cells, three days after drug treatment. The experiment is classed as cell-based, human.
For experiment [3], the system named is breast line MDA468. As to the kind of experiment: In vitro cell culture growth assay (MTS), MDA468. The experiment is classed as cell-based, human. The note with it: MDA468 cells, three days after drug treatment. The method, boiled down:
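MDA468 or LNCap cells received inhibitors one day after plating and were grown for three days. Viable cell density read by MTS conversion, absorbance 490 nm, expressed as percent of control growth versus vehicle-treated cells on the same plate.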

Sequence of PI3K (P42336 whole entry): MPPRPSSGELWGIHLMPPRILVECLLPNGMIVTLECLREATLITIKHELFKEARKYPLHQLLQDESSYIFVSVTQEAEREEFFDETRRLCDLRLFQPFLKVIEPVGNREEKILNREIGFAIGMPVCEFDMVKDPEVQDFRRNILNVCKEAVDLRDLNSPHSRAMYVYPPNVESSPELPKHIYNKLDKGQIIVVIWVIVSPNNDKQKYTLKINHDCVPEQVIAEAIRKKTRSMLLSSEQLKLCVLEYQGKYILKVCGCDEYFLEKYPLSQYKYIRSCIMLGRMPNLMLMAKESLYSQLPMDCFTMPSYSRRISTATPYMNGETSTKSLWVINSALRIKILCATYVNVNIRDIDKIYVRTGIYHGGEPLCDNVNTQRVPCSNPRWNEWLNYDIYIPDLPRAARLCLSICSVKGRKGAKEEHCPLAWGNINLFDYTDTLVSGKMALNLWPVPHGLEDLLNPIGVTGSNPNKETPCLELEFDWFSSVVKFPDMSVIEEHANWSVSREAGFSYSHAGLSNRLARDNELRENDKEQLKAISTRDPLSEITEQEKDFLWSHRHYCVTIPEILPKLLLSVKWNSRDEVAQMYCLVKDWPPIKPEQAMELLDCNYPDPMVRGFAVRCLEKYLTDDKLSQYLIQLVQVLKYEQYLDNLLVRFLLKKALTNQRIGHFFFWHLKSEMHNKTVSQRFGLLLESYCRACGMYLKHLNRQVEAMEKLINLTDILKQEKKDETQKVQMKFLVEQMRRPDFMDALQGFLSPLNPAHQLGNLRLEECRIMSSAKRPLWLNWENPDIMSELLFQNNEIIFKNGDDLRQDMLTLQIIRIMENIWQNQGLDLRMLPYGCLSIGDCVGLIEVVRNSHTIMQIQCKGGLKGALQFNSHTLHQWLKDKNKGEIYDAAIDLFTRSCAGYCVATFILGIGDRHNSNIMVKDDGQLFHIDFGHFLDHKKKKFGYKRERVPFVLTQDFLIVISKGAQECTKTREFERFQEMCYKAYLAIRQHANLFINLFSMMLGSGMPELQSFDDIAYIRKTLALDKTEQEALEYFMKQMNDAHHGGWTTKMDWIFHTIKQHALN
Sequence of PI3K (P27986 whole entry partner): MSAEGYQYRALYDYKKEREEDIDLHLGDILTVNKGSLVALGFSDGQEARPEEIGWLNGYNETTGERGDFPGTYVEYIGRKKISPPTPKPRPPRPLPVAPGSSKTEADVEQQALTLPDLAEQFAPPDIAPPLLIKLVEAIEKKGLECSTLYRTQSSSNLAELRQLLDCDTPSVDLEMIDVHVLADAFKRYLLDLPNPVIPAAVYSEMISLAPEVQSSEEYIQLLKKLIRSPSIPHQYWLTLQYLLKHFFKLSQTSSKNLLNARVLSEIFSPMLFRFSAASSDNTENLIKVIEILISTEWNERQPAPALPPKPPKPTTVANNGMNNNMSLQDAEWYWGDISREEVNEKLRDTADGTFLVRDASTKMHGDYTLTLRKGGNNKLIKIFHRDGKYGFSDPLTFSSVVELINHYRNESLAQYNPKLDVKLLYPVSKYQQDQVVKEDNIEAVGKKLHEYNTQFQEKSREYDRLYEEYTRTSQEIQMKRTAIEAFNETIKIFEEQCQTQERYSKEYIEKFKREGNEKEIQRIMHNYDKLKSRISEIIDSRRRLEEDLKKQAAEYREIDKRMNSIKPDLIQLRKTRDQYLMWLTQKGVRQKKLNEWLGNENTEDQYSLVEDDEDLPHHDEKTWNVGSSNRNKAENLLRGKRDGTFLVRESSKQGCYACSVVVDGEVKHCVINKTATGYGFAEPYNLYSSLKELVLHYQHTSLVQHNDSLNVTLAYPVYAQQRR

`O=C(Nc1ccccc1)Nc1ccc(-c2nc(N3CCOCC3)c3cnn(C4CCN(C(=O)c5ccccc5)CC4)c3n2)cc1` [Compound 623, 1-{4-[1-(1-benzoylpiperidin-4-yl)-4-morpholin-4-yl-1H-pyrazolo[3,4-d]pyrimidin-6-yl]phenyl}-3-phenylurea]: the IC50 was 16 nM in experiment [1]; below 27 nM in experiment [2] (Homo sapiens, LNCaP, 72 h); 50 nM in experiment [3] (Homo sapiens, 72 h).

Turning to `O=C(Nc1ccc(-c2nc(N3CCOCC3)c3cnn(C4CCN(C(=O)c5ccccc5)CC4)c3n2)cc1)Nc1cccnc1` [Compound 624, 1-{4-[1-(1-benzoylpiperidin-4-yl)-4-morpholin-4-yl-1H-pyrazolo[3,4-d]pyrimidin-6-yl]phenyl}-3-pyridin-3-ylurea], the IC50 is 34 nM in experiment [1]; below 27 nM in experiment [2]; below 27 nM in experiment [3] (Homo sapiens, 72 h).

As for `O=C(NCCF)Nc1ccc(-c2nc(N3CCOCC3)c3cnn(C4CCN(C(=O)c5ccccc5)CC4)c3n2)cc1` [Compound 625, 1-{4-[1-(1-benzoylpiperidin-4-yl)-4-morpholin-4-yl-1H-pyrazolo[3,4-d]pyrimidin-6-yl]phenyl}-3-(2-fluoroethyl)urea], the IC50 is 454 nM in experiment [1]; below 27 nM in experiment [2]; 27 nM in experiment [3] (Homo sapiens, 72 h).

With `CCNC(=O)Nc1ccc(-c2nc(N3CCOCC3)c3cnn(C4CCN(C(=O)c5ccccc5)CC4)c3n2)cc1` [Compound 626, 1-{4-[1-(1-benzoylpiperidin-4-yl)-4-morpholin-4-yl-1H-pyrazolo[3,4-d]pyrimidin-6-yl]phenyl}-3-ethylurea], the IC50 in experiment [1] is 355 nM; in experiment [2], below 27 nM; in experiment [3] (Homo sapiens, 72 h) it was 38 nM.

On to `NC(=O)Nc1ccc(-c2nc(N3CCOCC3)c3cnn(C4CCN(C(=O)c5ccccc5)CC4)c3n2)cc1` [Compound 627, 1-{4-[1-(1-benzoylpiperidin-4-yl)-4-morpholin-4-yl-1H-pyrazolo[3,4-d]pyrimidin-6-yl]phenyl}urea], for which the IC50 amounted to 84 nM in experiment [1], 170 nM in experiment [2] and 160 nM in experiment [3].

`O=C(Nc1ccncc1)Nc1ccc(-c2nc(N3CCOCC3)c3cnn(C4CCN(C(=O)c5ccccc5)CC4)c3n2)cc1` [Compound 629, 1-{4-[1-(1-benzoylpiperidin-4-yl)-4-morpholin-4-yl-1H-pyrazolo[3,4-d]pyrimidin-6-yl]phenyl}-3-pyridin-4-ylurea]: the IC50 is 19 nM in experiment [1], 42 nM in experiment [2] and 70 nM in experiment [3].

With `CNC(=O)Nc1ccc(-c2nc(N3CCOCC3)c3cnn(C4CCN(Cc5ccc(F)nc5)CC4)c3n2)cc1` [Compound 632, 1-[4-(1-{1-[(6-fluoropyridin-3-yl)methyl]piperidin-4-yl}-4-morpholin-4-yl-1H-pyrazolo[3,4-d]pyrimidin-6-yl)phenyl]-3-methylurea], the values for the IC50 in experiment [1], in experiment [2] and in experiment [3] were 108 nM, 35 nM and 120 nM, respectively.

Consider `CNC(=O)Nc1ccc(-c2nc(N3CCOCC3)c3cnn(C4CCN(Cc5ccc(Cl)nc5)CC4)c3n2)cc1` [Compound 633, 1-[4-(1-{1-[(6-chloropyridin-3-yl)methyl]piperidin-4-yl}-4-morpholin-4-yl-1H-pyrazolo[3,4-d]pyrimidin-6-yl)phenyl]-3-methylurea], for which the IC50 in experiment [1] was 47 nM; in experiment [2], below 27 nM; in experiment [3], 48 nM.

As to `CNC(=O)Nc1ccc(-c2nc(N3CCOCC3)c3cnn(C4CCN(Cc5ccc(Br)nc5)CC4)c3n2)cc1` [Compound 634, 1-[4-(1-{1-[(6-bromopyridin-3-yl)methyl]piperidin-4-yl}-4-morpholin-4-yl-1H-pyrazolo[3,4-d]pyrimidin-6-yl)phenyl]-3-methylurea], the IC50 stood at 30 nM in experiment [1], 27 nM in experiment [2] and 80 nM in experiment [3].

Consider `CNC(=O)Nc1ccc(-c2nc(N3CCOCC3)c3cnn(C4CCN(Cc5cccnc5Cl)CC4)c3n2)cc1` [Compound 635, 1-[4-(1-{1-[(2-chloropyridin-3-yl)methyl]piperidin-4-yl}-4-morpholin-4-yl-1H-pyrazolo[3,4-d]pyrimidin-6-yl)phenyl]-3-methylurea], for which the IC50 in experiment [1] worked out at 90 nM; in experiment [2] it was 45 nM; in experiment [3] it was 110 nM.

For `CNC(=O)Nc1ccc(-c2nc(N3CCOCC3)c3cnn(C4CCN(Cc5cnccc5OC)CC4)c3n2)cc1` [Compound 636, 1-[4-(1-{1-[(4-methoxypyridin-3-yl)methyl]piperidin-4-yl}-4-morpholin-4-yl-1H-pyrazolo[3,4-d]pyrimidin-6-yl)phenyl]-3-methylurea], the IC50 in experiment [1] worked out at 82 nM; in experiment [2] it was 70 nM; in experiment [3], 220 nM.

With `CNC(=O)Nc1ccc(-c2nc(N3CCOCC3)c3cnn(C4CCN(Cc5cncc(F)c5)CC4)c3n2)cc1` [Compound 637, 1-[4-(1-{1-[(5-fluoropyridin-3-yl)methyl]piperidin-4-yl}-4-morpholin-4-yl-1H-pyrazolo[3,4-d]pyrimidin-6-yl)phenyl]-3-methylurea], the results for the IC50 in experiment [1], in experiment [2] and in experiment [3] were 153 nM, 110 nM and 550 nM, respectively.

For the molecule `CNC(=O)Nc1ccc(-c2nc(N3CCOCC3)c3cnn(C4CCN(Cc5cncc(Br)c5)CC4)c3n2)cc1` [Compound 638, 1-[4-(1-{1-[(5-bromopyridin-3-yl)methyl]piperidin-4-yl}-4-morpholin-4-yl-1H-pyrazolo[3,4-d]pyrimidin-6-yl)phenyl]-3-methylurea], the IC50 in experiment [1] was found to be 72 nM; in experiment [2], 95 nM; in experiment [3], 560 nM.

As for `CNC(=O)Nc1ccc(-c2nc(N3CCOCC3)c3cnn(C4CCN(Cc5ccccc5Cl)CC4)c3n2)cc1` [Compound 641, 1-(4-{1-[1-(2-chlorobenzyl)piperidin-4-yl]-4-morpholin-4-yl-1H-pyrazolo[3,4-d]pyrimidin-6-yl}phenyl)-3-methylurea], the IC50 in experiment [1] was 35 nM; in experiment [2] it was 38 nM; in experiment [3], 180 nM.

On to `CNC(=O)Nc1ccc(-c2nc(N3CCOCC3)c3cnn(C4CCN(Cc5cccc(O)c5)CC4)c3n2)cc1` [Compound 642, 1-(4-{1-[1-(3-hydroxybenzyl)piperidin-4-yl]-4-morpholin-4-yl-1H-pyrazolo[3,4-d]pyrimidin-6-yl}phenyl)-3-methylurea], for which the IC50 in experiment [1] was found to be 28 nM; in experiment [2], 140 nM; in experiment [3], 420 nM.

Regarding `CNC(=O)Nc1ccc(-c2nc(N3CCOCC3)c3cnn(C4CCN(Cc5ccccc5O)CC4)c3n2)cc1` [Compound 644, 1-(4-{1-[1-(2-hydroxybenzyl)piperidin-4-yl]-4-morpholin-4-yl-1H-pyrazolo[3,4-d]pyrimidin-6-yl}phenyl)-3-methylurea], the IC50 came to 36 nM in experiment [1], 60 nM in experiment [2] and 320 nM in experiment [3].

On to `O=C(Nc1ccc(-c2nc(N3CCOCC3)c3cnn(C4CCN(Cc5cccnc5)CC4)c3n2)cc1)Nc1cccs1` [Compound 648, 1-(4-{4-morpholin-4-yl-1-[1-(pyridin-3-ylmethyl)piperidin-4-yl]-1H-pyrazolo[3,4-d]pyrimidin-6-yl}phenyl)-3-(2-thienyl)urea], for which the IC50 in experiment [1] is 8 nM; in experiment [2] it was below 27 nM; in experiment [3], 60 nM.

Consider `O=C(Nc1ccc(-c2nc(N3CCOCC3)c3cnn(C4CCN(Cc5cccnc5)CC4)c3n2)cc1)NC1CC1` [Compound 649, 1-cyclopropyl-3-(4-{4-morpholin-4-yl-1-[1-(pyridin-3-ylmethyl)piperidin-4-yl]-1H-pyrazolo[3,4-d]pyrimidin-6-yl}phenyl)urea], for which the 50% inhibitory concentration (IC50) in experiment [1] is 438 nM; in experiment [2], below 27 nM; in experiment [3] it was 85 nM.

`COC(=NC#N)Nc1ccc(-c2nc(N3CCOCC3)c3cnn(C4CCN(Cc5cccnc5)CC4)c3n2)cc1` [Compound 654, methyl N′-cyano-N-(4-{4-morpholin-4-yl-1-[1-(pyridin-3-ylmethyl)piperidin-4-yl]-1H-pyrazolo[3,4-d]pyrimidin-6-yl}phenyl)imidocarbamate]: the 50% inhibitory concentration (IC50) stood at 592 nM in experiment [1], 2200 nM in experiment [2] and 1300 nM in experiment [3].

`O=C(Nc1ccc(-c2nc(N3CCOCC3)c3cnn(C4CCN(C(=O)c5cccnc5)CC4)c3n2)cc1)Nc1cccs1` [Compound 657, 1-(4-{4-morpholin-4-yl-1-[1-(pyridin-3-ylcarbonyl)piperidin-4-yl]-1H-pyrazolo[3,4-d]pyrimidin-6-yl}phenyl)-3-(2-thienyl)urea]: the IC50 in experiment [1] was determined as 14 nM; in experiment [2] it was 35 nM; in experiment [3] (Homo sapiens, 72 h), 40 nM.

As to `O=C(Nc1ccc(-c2nc(N3CCOCC3)c3cnn(C4CCN(C(=O)c5cccnc5)CC4)c3n2)cc1)Nc1ccsc1` [Compound 658, 1-(4-{4-morpholin-4-yl-1-[1-(pyridin-3-ylcarbonyl)piperidin-4-yl]-1H-pyrazolo[3,4-d]pyrimidin-6-yl}phenyl)-3-(3-thienyl)urea], the IC50 was determined as 18 nM in experiment [1], 40 nM in experiment [2] and 75 nM in experiment [3].

On to `CNC(=O)Nc1ccc(-c2nc(N3CCOCC3)c3cnn(C4CCN(C(=O)c5ccccn5)CC4)c3n2)cc1` [Compound 662, 1-methyl-3-(4-{4-morpholin-4-yl-1-[1-(pyridin-2-ylcarbonyl)piperidin-4-yl]-1H-pyrazolo[3,4-d]pyrimidin-6-yl}phenyl)urea], for which the values for the half-maximal inhibitory concentration (IC50) in experiment [1], in experiment [2] and in experiment [3] were 124 nM, 120 nM and 220 nM, respectively.

Consider `CNC(=O)Nc1ccc(-c2nc(N3CCOCC3)c3cnn(C4CCN(C(=O)c5cnccc5C)CC4)c3n2)cc1` [Compound 663, 1-methyl-3-[4-(1-{1-[(4-methylpyridin-3-yl)carbonyl]piperidin-4-yl}-4-morpholin-4-yl-1H-pyrazolo[3,4-d]pyrimidin-6-yl)phenyl]urea], for which the IC50 was found to be 230 nM in experiment [1], 320 nM in experiment [2] and 430 nM in experiment [3].
